One data set deals with Caco-2 cell monolayers. Briefly: Caco-2 permeability assay. It is filed as in vitro ADME, human. From the text:
Caco-2 cells are commonly used in a confluent monolayer on a cell culture insert filter. When cultured in this format and under specific conditions, the cells become differentiated and polarized such that their phenotype, morphologically and functionally resembles the enterocytes lining the small intestine. The cell monolayer provides a physical and biochemical barrier to the passage of small molecules, and is widely used across the pharmaceutical industry as an in vitro model of the human small intestinal mucosa to predict the absorption of orally administered drugs (Hidalgo et al., Gastroenterology, 1989; Artursson, J. Pharm. Sci., 1990). The correlation between the in vitro apparent permeability (P ? app) across Caco-2 monolayers and the in vivo absorption is well established (Artursson et al., Biochem. Biophys. Res. Comm., 1991).
The present assay was used to determine the bidirectional permeability of the compounds of the invention through Caco-2 cell monolayers. Caco-2 cells were grown in confluent monolayers where the media of both the apical (A) and basolateral (B) sides were at pH 7.4. Compounds were dosed at 1 μM in the presence of 200 μM Lucifer Yellow, on the apical side (A→B) or the basolateral side (B→A) for assessment, in duplicate.
The absorption potential of compounds were classified as either Low (P-app<1×10^−6 cm/s) or High (P-app>1×10^−6 cm/s).
For orientation: Caco-2 cells form a polarised layer with tight junctions and transporters.

The test system of a further data set is P493-6 (myc "on") cells. Briefly: Cell proliferation assay. The conditions noted are these: P493-6, 72 h, read-out: Cell prolif P493 72 h IC50. It is filed as cell-based. As to the method: P493-6 (myc “on”) cells were maintained in growth media (RPMI-1640, 10% FBS, 2 mM glutamine, 100 units/ml Penicillin and 100 μg/ml streptomycin) at 37° C. with 5% CO2. For compound assay, P493-6 cells were plated in 96-well V-bottom plates on the day of compound addition in 50 μl of growth media at a cell density of 200,000 cells/ml (10,000 cells/well). Compounds were serially diluted in 100% DMSO at 200-times the final concentration. Compounds were diluted 100-fold into growth media and then 50 μl of this mixture was added to cell plates making the final concentration of DMSO 0.5%. Cells were incubated with compound for 72 hrs at 37° C. with 5% CO2 and analyzed for antiproliferative effects either by Cell Titer Glo (Promega) or FACS analysis using the Viacount (Millipore) kit on the Guava instrument.

Take `O=C(Cc1cccc(OC(F)(F)F)c1)Nc1ccc(CCCCc2nnc(NC(=O)Cc3cccc(OC(F)(F)F)c3)s2)nn1` [Compound 660]: the “Significant Efflux” value in the data set with Caco-2 cell monolayers was “Yes (efflux ratios being significant when greater than or equal to 3 when the Papp (B→A) was greater than or equal to 1×10^−6 cm/s)”. Moreover, the IC50 in the data set with P493-6 (myc "on") cells is 37 nM.
Consider `O=C(Cc1cccc(OC(F)(F)F)c1)Nc1ccc(CCCCc2nnc(NC(=O)Cc3cccc(F)c3)s2)nn1` [Compound 679], for which the “Significant Efflux” value in the data set on Caco-2 cell monolayers is listed as “No”. Also, the IC50 with P493-6 (myc "on") cells came to 36 nM.
For `CC(C(=O)Nc1ccc(CCCCc2nnc(NC(=O)Cc3cccc(CNC(=O)OC(C)(C)C)c3)s2)nn1)c1ccccc1` (centres unmarked) [Compound 436] the same measures were “Yes (efflux ratios being significant when greater than or equal to 3 when the Papp (B→A) was greater than or equal to 1×10^−6 cm/s)” and 10 nM.
As to `O=C(Cc1ccccc1)Nc1ccc(CCCCc2nnc(NC(=O)Cc3ccccn3)s2)nn1` [Compound 354], in the data set with Caco-2 cell monolayers, the “Significant Efflux” value was “Yes (efflux ratios being significant when greater than or equal to 3 when the Papp (B→A) was greater than or equal to 1×10^−6 cm/s)”. Further, the half-maximal inhibitory concentration (IC50) with P493-6 (myc "on") cells came out at 47 nM.
On to `CC(C(=O)Nc1nnc(CCCCc2ccc(NC(=O)Cc3ccccc3)nn2)s1)c1ccccc1` (centres unmarked) [Compound 616], for which the “Significant Efflux” value in the data set on Caco-2 cell monolayers is recorded as “Yes (efflux ratios being significant when greater than or equal to 3 when the Papp (B→A) was greater than or equal to 1×10^−6 cm/s)”. Besides, in the data set on P493-6 (myc "on") cells, the IC50 stood at 130 nM.
Regarding `O=C(Cc1ccccc1Cl)Nc1ccc(CCCCc2nnc(NC(=O)Cc3ccccc3F)s2)nn1` [Compound 533], the “Significant Efflux” value in the data set on Caco-2 cell monolayers is “Yes (efflux ratios being significant when greater than or equal to 3 when the Papp (B→A) was greater than or equal to 1×10^−6 cm/s)”. Further, the IC50 in the data set on P493-6 (myc "on") cells turned out to be 41 nM.
In the case of `Cc1ccn(CC(=O)Nc2nnc(CCCCc3ccc(NC(=O)Cc4cccc(OC(F)(F)F)c4)nn3)s2)n1` [Compound 698], in the data set on P493-6 (myc "on") cells, the IC50 worked out at 98 nM.
`Cc1nn(C(=O)OC(C)(C)C)c(C)c1CC(=O)Nc1nnc(CCCCc2ccc(NC(=O)Cc3cccc(OC(F)(F)F)c3)nn2)s1` [Compound 694]: in the data set with P493-6 (myc "on") cells, the 50% inhibitory concentration (IC50) was 29 nM.
Same read-out and setting: in the case of `COc1cccc(CC(=O)Nc2nnc(CCCCc3ccc(NC(=O)Cc4cccc(OC(F)(F)F)c4)nn3)s2)c1` [Compound 658] it was 40 nM; in that of `CC(C)(C)OC(=O)n1cnc(CC(=O)Nc2nnc(CCCCc3ccc(NC(=O)Cc4cccc(OC(F)(F)F)c4)nn3)s2)c1` [Compound 696], 34 nM; in that of `Nc1nnc(CCCCc2ccc(NC(=O)Cc3cccc(OC(F)(F)F)c3)nn2)s1` [Compound 657], 1500 nM.
Turning to `O=C(Cc1ccc(OC(F)(F)F)cc1)Nc1ccc(CCCCc2nnc(NC(=O)Cc3ccccc3)s2)nn1` [Compound 615], in the data set on P493-6 (myc "on") cells, the IC50 was found to be 120 nM.
Still for that read-out and setting: in the case of `CCOC(=O)NCc1cccc(CC(=O)Nc2nnc(CCCCc3ccc(NC(=O)Cc4cccc(OC(F)(F)F)c4)nn3)s2)c1` [Compound 600] it was 8 nM.
For `CC(C)(C)OC(=O)NCc1cccc(CC(=O)Nc2nnc(CCCCc3ccc(NC(=O)Cc4ccccc4)nn3)s2)c1` [Compound 339], the “Significant Efflux” value in the data set on Caco-2 cell monolayers is “Yes (efflux ratios being significant when greater than or equal to 3 when the Papp (B→A) was greater than or equal to 1×10^−6 cm/s)”. In addition, the half-maximal inhibitory concentration (IC50) in the data set with P493-6 (myc "on") cells came to 9 nM.
With `O=C(Cc1ccc(O)c(OC(F)(F)F)c1)Nc1ccc(CCCCc2nnc(NC(=O)Cc3ccccn3)s2)nn1` [Compound 723], the 50% inhibitory concentration (IC50) with P493-6 (myc "on") cells was 20 nM.
Same read-out and setting: next, `O=C(Cc1cccc(OC(F)(F)F)c1)Nc1ccc(CCCCc2nnc(NC(=O)Cc3cc(F)ccc3F)s2)nn1` [Compound 659]: 58 nM; `O=C(Cc1cccc(OC(F)F)c1)Nc1ccc(CCCCc2nnc(NC(=O)Cc3ccccc3)s2)nn1` [Compound 666]: 58 nM; `O=C(Cc1cc(OC(F)(F)F)ccc1O)Nc1ccc(CCCCc2nnc(NC(=O)Cc3ccccn3)s2)nn1` [Compound 718]: 15 nM.
As to `O=C(Cc1cccc(OC(F)(F)F)c1)Nc1ccc(CCCCc2nnc(NC(=O)[C@H](O)c3ccccc3)s2)nn1` [Compound 705], the “Significant Efflux” value in the data set with Caco-2 cell monolayers was “Yes (efflux ratios being significant when greater than or equal to 3 when the Papp (B→A) was greater than or equal to 1×10^−6 cm/s)”. In the data set with P493-6 (myc "on") cells, the half-maximal inhibitory concentration (IC50) stood at 32 nM.
In the case of `O=C(Cc1cccc(OC(F)(F)F)c1)Nc1ccc(CCCCc2nnc(NC(=O)CN3C[C@@H](O)CC3=O)s2)nn1` [Compound 704], in the data set on P493-6 (myc "on") cells, the concentration for half-maximal inhibition (IC50) was 880 nM.
As to `CCCC(=O)OCN(C(=O)Cc1ccccc1)c1nnc(CCCCc2ccc(NC(=O)Cc3cccc(OC(F)(F)F)c3)nn2)s1` [Compound 629], the IC50 with P493-6 (myc "on") cells was 65 nM.
As to `O=C(Cc1cccc(OC(F)(F)F)c1)Nc1ccc(CCCCc2nnc(NC(=O)C(OC(=O)C(O)c3ccccc3)c3ccccc3)s2)nn1` (centres unmarked) [Compound 690], the IC50 in the data set on P493-6 (myc "on") cells was 17 nM.
Still for that read-out and setting: in the case of `[2H]C([2H])(CCc1nnc(N)s1)C([2H])([2H])c1ccc(NC(=O)Cc2cccc(OC(F)(F)F)c2)nn1` [Compound 726] it was 610 nM; in that of `O=C(Cc1cccc(OC(F)(F)F)c1)Nc1ccc(CCCCc2nnc(NC(=O)Cc3cccc(F)c3F)s2)nn1` [Compound 663], 89 nM; in that of `O=C(Cc1ccccc1OC(F)(F)F)Nc1ccc(CCCCc2nnc(NC(=O)Cc3ccccc3)s2)nn1` [Compound 614], 82 nM.
On to `O=C(Cc1cccc(OC(F)(F)F)c1)Nc1ccc(CCCCc2nnc(NC(=O)[C@@H](O)c3ccccc3)s2)nn1` [Compound 703], for which the “Significant Efflux” value with Caco-2 cell monolayers was “Yes (efflux ratios being significant when greater than or equal to 3 when the Papp (B→A) was greater than or equal to 1×10^−6 cm/s)”. Also, the 50% inhibitory concentration (IC50) in the data set on P493-6 (myc "on") cells worked out at 12 nM.
Take `O=C(Cc1cccc(OC(F)(F)F)c1)Nc1ccc(CCCCc2nnc(NC(=O)Cc3cscn3)s2)nn1` [Compound 678]: the IC50 in the data set with P493-6 (myc "on") cells was 26 nM.
As to `O=C(Cc1ccccn1)Nc1nnc(CCCCc2ccc(NC(=O)C(O)c3ccccc3)nn2)s1` (centres unmarked) [Compound 715], in the data set with P493-6 (myc "on") cells, the IC50 stood at 390 nM.
On to `O=C(Cc1cccc(OC(F)(F)F)c1)Nc1ccc(CCCCc2nnc(NC(=O)Cc3cccc(OC(F)F)c3)s2)nn1` [Compound 668], for which the IC50 with P493-6 (myc "on") cells came out at 26 nM.
Take `CC(C)c1cn(CC(=O)Nc2nnc(CCCCc3ccc(NC(=O)Cc4cccc(OC(F)(F)F)c4)nn3)s2)nn1` [Compound 699]: in the data set with P493-6 (myc "on") cells, the half-inhibitory concentration (IC50) was 120 nM.
Consider `O=C(Cc1cccc(OC(F)(F)F)c1)Nc1ccc(CCCCc2nnc(NC(=O)Cc3ccc(Cl)nc3)s2)nn1` [Compound 683], for which, in the data set on P493-6 (myc "on") cells, the 50% inhibitory concentration (IC50) came to 24 nM.
The same measure, in the same setting: next, `O=C(Cc1cccc(OC(F)(F)F)c1)Nc1ccc(CCCCc2nnc(NC(=O)CN3CCCC3=O)s2)nn1` [Compound 709]: 140 nM.

The term IC50 denotes the point on the concentration scale where inhibition reaches its midpoint.

The record behind these values is patent US10793535B2, “Heterocyclic glutaminase inhibitors” (Calithera Biosciences, Inc., priority 2012, dated 2020).
